Assay results as given in paper PMC9230136 (Pharmaceutics, 2022).

What was measured:
[1] = tested on: MDA-MB-231; experiment: Antiproliferative assay (resazurin, 72 h); assay type: cell-based, human; conditions: mean ± SE, 72 h
Experimental: (§1) Colon adenocarcinoma (HT-29) and T-cell leukemia (Jurkat) cells were grown in RPMI-1640 medium (Gibco, Milano, Italy). Promyelocytic leukemia cells (HL-60), non-small cell lung carcinoma (A549), cervix carcinoma (HeLa) and breast adenocarcinoma (MDA-MB-231) cells were grown in DMEM medium (Gibco, Milano, Italy). Both media were supplemented with 115 units/mL of penicillin G (Gibco, Milano, Italy), 115 μg/mL of streptomycin (Invitrogen, Milano, Italy) and 10% fetal bovine serum (Invitrogen, Milano, Italy). All the cell lines used were purchased from the American Type Culture Collection (ATCC, Manassas, VA, USA). Stock solutions (10 mM) of the compounds were obtained by dissolving them in DMSO.
(§2) The cells were seeded in 96-well plates at the appropriate density for each cell line. After 24 h, the cells were treated by performing serial 5-fold dilutions of the tested compounds starting from a concentration of 10 μM. All experimental conditions were tested in triplicate for statistical analysis. The plates were incubated for 72 h at 37 °C in a humidified 5% CO2 atmosphere. At the end of the incubation period, 10 μL of 100 μg/mL resazurin solution was added to each well; then, the plate was re-incubated for 3–4 h. The fluorescence of the wells in each plate was monitored using a Spark 10 M spectrophotometer (Tecan Group Ltd., Mannedorf, Switzerland) with a 535 nm excitation wavelength and a 600 nm emission wavelength.

[2] = tested on: HT-29; experiment: Antiproliferative assay (resazurin, 72 h); assay type: cell-based, human; conditions: mean ± SE, 72 h
Experimental: as §1, §2

[3] = tested on: HeLa; experiment: Antiproliferative assay (resazurin, 72 h); assay type: cell-based, human
Experimental: as §1, §2

[4] = tested on: Jurkat; experiment: Antiproliferative assay (resazurin, 72 h); assay type: cell-based, human; conditions: mean ± SE, 72 h
Experimental: as §1, §2

[5] = tested on: A549; experiment: Antiproliferative assay (resazurin, 72 h); assay type: cell-based, human
Experimental: as §1, §2

[6] = Homo sapiens, MDA-MB-231, Table 1
[7] = Homo sapiens, HeLa, Table 1, mean ± SE
[8] = Homo sapiens, A549, Table 1, mean ± SE
[9] = Homo sapiens, MDA-MB-231, Table 2
[10] = Homo sapiens, HeLa, Table 2, mean ± SE
[11] = Homo sapiens, A549, Table 2, mean ± SE

SMILES | melting point [°C] | IC50 [1, 6] [µM] | IC50 ([2]; Homo sapiens, HT-29, Table 1) [µM] | IC50 [3, 7] [µM] | IC50 ([4]; Homo sapiens, Jurkat, Table 1) [µM] | IC50 [5, 8] [µM] | IC50 [1, 9] [µM] | IC50 ([2]; Homo sapiens, HT-29, Table 2) [µM] | IC50 [3, 10] [µM] | IC50 ([4]; Homo sapiens, Jurkat, Table 2) [µM] | IC50 [5, 11] [µM] | IC50 ([1]; Table 2) [µM] | IC50 ([2]; Table 2) [µM] | IC50 ([3]; Table 2, mean ± SE) [µM] | IC50 ([4]; Table 2) [µM] | IC50 ([5]; Table 2, mean ± SE) [µM]
COc1cc(Nc2cc(C)nc3nc(Nc4ccc(C)cc4)nn23)cc(OC)c1OC [Compound 7g, 5-Methyl-N2-(p-tolyl)-N7-(3,4,5-trimethoxyphenyl)-[1,2,4]triazolo [1,5-a]pyrimidine-2,7-diamine] | 234 | 1.51 ± 0.14 | 0.94 ± 0.11 | 0.5 ± 0.04 | 0.85 ± 0.02 | 1.55 ± 0.19 |  |  |  |  |  |  |  |  |  | 
COc1cc(Nc2cc(C)nc3nc(NCc4ccc(C#N)cc4)nn23)cc(OC)c1OC [Compound 7x, 4-(((5-Methyl-7-((3,4,5-trimethoxyphenyl)amino)-[1,2,4]triazolo [1,5-a]pyrimidin-2-yl)amino)methyl)benzonitrile] | 178 to 180 | 1.55 ± 0.11 | > 10 | 9.01 ± 0.21 | > 10 | > 10 |  |  |  |  |  |  |  |  |  | 
COc1ccc(Nc2nc3nc(C)cc(Nc4cc(OC)c(OC)c(OC)c4)n3n2)cc1 [Compound 7h, N2-(4-Methoxyphenyl)-5-methyl-N7-(3,4,5-trimethoxyphenyl)-[1,2,4]triazolo [1,5-a]pyrimidine-2,7-diamine] | 215 | 1.17 ± 0.13 | 0.92 ± 0.09 | 0.52 ± 0.03 | 1.01 ± 0.13 | 3.76 ± 0.14 |  |  |  |  |  |  |  |  |  | 
COc1ccccc1CNc1nc2nc(C)cc(Nc3cc(OC)c(OC)c(OC)c3)n2n1 [Compound 7u, N^2-(2-Methoxybenzyl)-5-methyl-N^7-(3,4,5-trimethoxyphenyl)-[1,2,4]triazolo [1,5-a]pyrimidine-2,7-diamine] | 208 to 210 | 4.4 ± 0.26 | > 10 | > 10 | > 10 | > 10 |  |  |  |  |  |  |  |  |  | 
COc1cccc(CNc2nc3nc(C)cc(Nc4cc(OC)c(OC)c(OC)c4)n3n2)c1 [Compound 7t, N^2-(3-Methoxybenzyl)-5-methyl-N^7-(3,4,5-trimethoxyphenyl)-[1,2,4]triazolo [1,5-a]pyrimidine-2,7-diamine] | 150 to 152 | 1.78 ± 0.15 | 1.04 ± 0.08 | 0.88 ± 0.09 | 1.65 ± 0.11 | 1.65 ± 0.14 |  |  |  |  |  |  |  |  |  | 

Next, values leading:

melting point [°C] | IC50 [1, 6] [µM] | IC50 ([2]; Homo sapiens, HT-29, Table 1) [µM] | IC50 [3, 7] [µM] | IC50 ([4]; Homo sapiens, Jurkat, Table 1) [µM] | IC50 [5, 8] [µM] | IC50 [1, 9] [µM] | IC50 ([2]; Homo sapiens, HT-29, Table 2) [µM] | IC50 [3, 10] [µM] | IC50 ([4]; Homo sapiens, Jurkat, Table 2) [µM] | IC50 [5, 11] [µM] | IC50 ([1]; Table 2) [µM] | IC50 ([2]; Table 2) [µM] | IC50 ([3]; Table 2, mean ± SE) [µM] | IC50 ([4]; Table 2) [µM] | IC50 ([5]; Table 2, mean ± SE) [µM] | SMILES
164 to 166 |  |  |  |  |  | 4.82 ± 1.91 | 2.66 ± 0.66 | 0.96 ± 0.46 | 1.66 ± 0.48 | 2.17 ± 0.01 |  |  |  |  |  | Cc1cc(Nc2cccc(Cl)c2)n2nc(NCc3ccc4c(c3)OCO4)nc2n1 [Compound 8j, N^2-(Benzo[d][1,3]dioxol-5-ylmethyl)-N^7-(3-chlorophenyl)-5-methyl-[1,2,4]triazolo [1,5-a]pyrimidine-2,7-diamine]
166 to 168 |  |  |  |  |  | 2.04 ± 1.03 | 1.38 ± 0.06 | 0.72 ± 0.34 | 0.95 ± 0.12 | 2.36 ± 0.34 |  |  |  |  |  | Cc1cc(Nc2ccc(Cl)c(Cl)c2)n2nc(NCc3ccc4c(c3)OCO4)nc2n1 [Compound 8k, N^2-(Benzo[d][1,3]dioxol-5-ylmethyl)-N^7-(3,4-dichlorophenyl)-5-methyl-[1,2,4]triazolo [1,5-a]pyrimidine-2,7-diamine]
186 to 188 |  |  |  |  |  | 0.39 ± 0.04 | 0.34 ± 0.02 | 0.19 ± 0.05 | 0.5 ± 0.31 | 0.32 ± 0.06 |  |  |  |  |  | Cc1cc(Nc2ccc(F)c(Cl)c2)n2nc(NCc3ccc(Cl)cc3)nc2n1 [Compound 8a, N^7-(3-Chloro-4-fluorophenyl)-N^2-(4-chlorobenzyl)-5-methyl-[1,2,4]triazolo [1,5-a]pyrimidine-2,7-diamine]
158 to 160 |  |  |  |  |  | 6.13 ± 1.46 | 5.18 ± 0.27 | 3.64 ± 1.01 | 1.6 ± 0.29 | 3.27 ± 0.57 |  |  |  |  |  | Cc1cc(Nc2ccc(C(F)(F)F)cc2)n2nc(NCc3ccc4c(c3)OCO4)nc2n1 [Compound 8n, N^2-(Benzo[d][1,3]dioxol-5-ylmethyl)-N^7-(4-trifluoromethylphenyl)-5-methyl-[1,2,4]triazolo [1,5-a]pyrimidine-2,7-diamine]
 |  |  |  |  |  |  |  |  |  |  | 1.32 ± 0.87 | 0.38 ± 0.03 | 0.153 ± 0.01 | 0.14 ± 0.07 | 0.26 ± 0.07 | Cc1cc(Nc2cccc(Cl)c2)n2nc(NCCCc3ccccc3)nc2n1 [Compound 8t]
